Columns and labels:
H1299 cells [1] = assay: Cell cycle analysis of H1299 cells during replication stress time course; format: cell-based
Procedure: (§1) To test whether replication stress affects the Mcl-1/Ku interaction, time course experiments were carried out. H1299 cells were treated with Hu or olaparib for various times (0, 0.5, 1, 2, 8, or 24 hours). The Mcl-1/Ku interaction and cell cycle were analyzed simultaneously at each time point. […] These findings indicate that, in addition to S/G2 cell cycle phase, Hu- or olaparib-induced DNA replication stress can also promote Mcl-1/Ku interaction.

Mcl-1/Ku complex = molecular target: T1, Mcl-1/Ku complex (Homo sapiens, UniProt Q07820); assay: Co-IP of Mcl-1/Ku interaction in H1299 cells; format: cell-based; conditions: for Mcl-1/Ku interaction: time course 0, 0.5, 1, 2, 8, or 24 hours
T1 construct: endogenous in cells; host or cells: H1299
Procedure: as §1
(§2) To assess whether Mcl-1 is essential for the effect of MI-223 on HR activity, Mcl-1 was knocked out from H1299 cells using CRISPR/Cas9 to generate Mcl-1-deficient cells. WT Mcl-1, Ku binding-deficient mutant ΔBH1, and empty vector control were exogenously expressed in Mcl-1-knockout H1299 (Mcl1−/− H1299) cells, followed by treatment with MI-223 for 24 hours and analysis of HR efficacy. […] Intriguingly, expression of exogenous WT Mcl-1 but not the Ku binding-deficient ΔBH1 Mcl-1 mutant in Mcl-1-deficient H1299 cells restored the inhibitory effect of MI-223 on HR activity.

[2] = tested on: Rad51 foci in H1299 cells; assay: Rad51 foci immunostaining in H1299 cells; format: cell-based; conditions: for induction of Rad51 foci: single agent
Procedure: Rad51 foci were quantified by counting of at least 100 cells from each sample.
(§3) To test whether inhibition of HR by MI-223 sensitizes cancer cells to DNA replication stress, H1299 cells were treated with olaparib or Hu in the absence or presence of MI-223, followed by analysis of Rad51 foci and clonogenic survival. […] Importantly, MI-223 suppression of HR DNA repair activity synergizes with olaparib or Hu to kill H1299 lung cancer cells (FIG. 4H).

[3] = tested on: H1299 lung cancer xenografts; assay: H1299 lung cancer xenograft tumor growth in nude mice; format: in vivo; conditions: for repression of lung cancer in vivo (tumor volume): single agent, 0, 20, 40, 80 and 120 mg/kg/day for 30 days; for suppression of lung tumor growth: vs single agent
Procedure: Nu/Nu nude mice with H1299 lung cancer xenografts were treated with increasing doses of MI-223 (0, 20, 40, 80 and 120 mg/kg/day) for 30 days (n=8 mice per group). Tumor volume was measured once every 2 days. After 30 days, the mice were sacrificed, and the tumors were removed and analyzed. […]

[4] = tested on: RPA2 foci in WT MEF cells; assay: RPA2 foci immunostaining in WT MEF cells (DNA end resection); format: cell-based
Procedure: (§4) HR repair is initiated by DSB end resection that is mediated by the Mre11 complex, whereas Ku tightly bound to DNA ends blocks Mre11 DNA resection. As Mcl-1 negatively regulates Ku function via direct binding, Mcl-1 may reverse the Ku-mediated inhibitory effect on Mre11 complex-mediated DNA end resection. Mre11-Rad50 complex-mediated exonuclease activity was analyzed in the presence of increasing concentrations of Mcl-1 protein using 5′-32P-end-labeled fork DNA as a substrate. […] Ku heterodimer inhibited MR-mediated DNA resection (FIG. 2A, lane 3 vs. lane 2), which was gradually reversed by the addition of increasing concentrations of purified Mcl-1 protein in the presence of a constant amount of Ku protein (FIG. 2A, lane 3 vs. lanes 4-7). BSA was used as control and had no effect on DNA resection. […] In addition, RPA2 is an established reporter of DNA end resection during HR repair in cells. To further test the effect of Mcl-1 on DNA resection in cells, RPA2 foci formation following treatment with Hu, camptothecin (CPT), or IR was compared in WT and Mcl1−/− MEFs. […] RPA2 phosphorylation at Ser4 and Ser8 was analyzed by Western blot using the S4/S8 dual-site phosphospecific RPA2 antibody following exposure of MEF WT or MEF Mcl1−/− cells to IR, CPT, and Hu. […]

[5] = tested on: RPA2 phosphorylation at Ser4 and Ser8; assay: RPA2 Ser4/Ser8 phosphorylation by Western blot in MEF cells; format: cell-based
Procedure: as §4

[6] = tested on: HR activity in U2OS DR-GFP cells; assay: HR repair efficiency in U2OS DR-GFP cells; format: cell-based; conditions: dose-dependent
[7] = tested on: H1299 lung cancer xenografts; assay: IHC staining of Ki-67 and γ-H2AX in xenograft tumor tissues; format: in vivo, mice
[8] = tested on: HR efficacy in Mcl-1-deficient H1299 cells; assay: HR efficacy in Mcl-1-knockout H1299 cells; format: cell-based; conditions: 24 hours
Procedure: as §2

H1299 cells [9] = assay: Annexin V binding assay; format: cell-based
WT Mcl-1 protein = WT Mcl-1 protein (Homo sapiens, UniProt Q07820); assay: Isothermal titration calorimetry (ITC), MI-223/Mcl-1 binding; conditions: 1-site binding mode, read-out: binding constant (KD)
Procedure: (§5) The binding constant (KD) value was determined by fitting of the titration curve to a 1-site binding mode
(§6) To confirm the binding of MI-223 with Mcl-1, isothermal titration calorimetry (ITC) was used to measure MI-223/Mcl-1 binding. ITC is a direct, label- and immobilization-free technique that measures the binding affinity between proteins and small-molecule ligands that interact with each other, and can analyze binding constant (KD) values in the millimolar and nanomolar range. ITC experiments were performed to assess MI-223/Mcl-1 binding using an auto-iTC200 instrument. […] In addition to the binding constant (KD) value measured by ITC, we also used fluorescence polarization (FP) to measure the inhibitory constant (KI) value using a fluorescence-labeled PUMA BH3 peptide. The PUMA BH3 peptide was chose for this FP assay to evaluate Mcl-1/MI-223 binding because it has been reported to bind specifically to the […] of Mcl-1. […] Based on findings from both ITC (i.e., KD) and FP (i.e., KI), we conclude that MI-223 may directly bind to Mcl-1 with good affinity.

Mcl-1 = Mcl-1 (Homo sapiens, UniProt Q07820); assay: Fluorescence polarization (FP) assay with fluorescence-labeled PUMA BH3 peptide; conditions: read-out: inhibitory constant (KI) of MI-223/Mcl-1 binding
Procedure: as §6

H1299 lung cancer cells = assay: Colony formation assay (clonogenic survival) in H1299 cells; format: cell-based
Procedure: as §3

[10] = tested on: HR activity in H1299 DR-GFP cells; assay: HR repair efficiency in H1299 DR-GFP cells; format: cell-based
[11] = molecular target: T2, BH1 deletion Mcl-1 mutant protein (ΔBH1) (Homo sapiens, UniProt Q07820, DEL256-265); assay: Isothermal titration calorimetry (ITC), BH1 deletion mutant; format: binding; conditions: ITC assay
T2 construct: made in house
Procedure: as §5, §6

[12] = Toxicity evaluation in treated xenograft mice (weight, blood chemistry, blood counts, histopathology); format: in vivo
[13] = MI-223 in combination with Hu, compared with Hu alone
[14] = MI-223 in combination with olaparib, compared with olaparib alone
[15] = mice treated with MI-223 alone or in combination with olaparib or Hu

T1 sequence (Q07820 whole entry, one chain of several): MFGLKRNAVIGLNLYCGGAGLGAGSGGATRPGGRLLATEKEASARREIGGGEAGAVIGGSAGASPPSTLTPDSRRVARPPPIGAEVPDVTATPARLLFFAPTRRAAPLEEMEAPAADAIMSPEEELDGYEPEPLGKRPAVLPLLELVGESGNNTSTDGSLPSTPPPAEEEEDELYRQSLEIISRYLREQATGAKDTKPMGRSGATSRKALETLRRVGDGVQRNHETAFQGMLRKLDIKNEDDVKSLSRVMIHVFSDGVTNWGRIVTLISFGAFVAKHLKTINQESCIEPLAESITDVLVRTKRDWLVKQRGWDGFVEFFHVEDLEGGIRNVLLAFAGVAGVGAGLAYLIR
Sequence of Mcl-1 (Q07820 whole entry): as the sequence (Q07820 whole entry, one chain of several) above
Sequence of WT Mcl-1 protein (Q07820 whole entry): as the sequence (Q07820 whole entry, one chain of several) above
T2 sequence (Q07820 with tags, fused parts or gaps DEL256-265): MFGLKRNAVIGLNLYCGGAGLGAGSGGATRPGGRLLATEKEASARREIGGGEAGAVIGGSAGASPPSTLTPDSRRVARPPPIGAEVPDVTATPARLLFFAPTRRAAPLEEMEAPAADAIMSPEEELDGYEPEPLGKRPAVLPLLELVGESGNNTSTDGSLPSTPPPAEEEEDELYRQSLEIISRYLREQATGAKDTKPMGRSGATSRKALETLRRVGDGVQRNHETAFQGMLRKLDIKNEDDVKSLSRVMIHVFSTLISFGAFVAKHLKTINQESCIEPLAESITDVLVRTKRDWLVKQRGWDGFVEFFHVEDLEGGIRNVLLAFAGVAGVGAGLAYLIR

O=C(c1cc(Cc2n[nH]c(=O)c3ccccc23)ccc1F)N1CCN(C(=O)C2CC2)CC1 [olaparib]
percentage of S phase cells (H1299 cells [1]; time points tested): did not significantly affect | Mcl-1/Ku interaction (Mcl-1/Ku complex): increased at 2, 8, and 24 hours | induction of Rad51 foci [2]: induced Rad51 foci

O=[N+]([O-])c1ccccc1C=NNC(=S)NN=Cc1ccccc1[N+](=O)[O-] [MI-361, N′-(2-nitrobenzylidene)-2-(2-nitrobenzylidene)hydrazine-1-carbothiohydrazide]
repression of lung cancer in vivo (tumor volume) [3]: potently represses lung cancer in vivo

Cc1ccc(C)c(NC(=O)C(=O)C(C(=O)c2ccc3ccccc3c2)C2OC(=O)c3ccccc32)c1 (stereo not shown) [MI-985, N-(2,5-dimethylphenyl)-4-(naphthalen-2-yl)-2,4-dioxo-3-(3-oxo-1,3-dihydroisobenzofuran-1-yl)butanamide]
repression of lung cancer in vivo (tumor volume) [3]: potently represses lung cancer in vivo

CC[C@@]1(O)C(=O)OCc2c1cc1n(c2=O)Cc2cc3ccccc3nc2-1 [CPT, camptothecin]
RPA2 foci formation ([4]; CPT 1 μM for 1 hour): induced RPA2 foci formation | RPA2 phosphorylation at S4 and S8 ([5]; CPT 1 μM for 1 hour): stimulated RPA2 phosphorylation

NC(=O)NO [Hu, hydroxyurea]
percentage of cells in S phase (H1299 cells [1]; 24-hour time point): enhanced | percentage of cells in S phase (H1299 cells [1]; short time points (2 and 8 hours)): did not alter | Mcl-1/Ku interaction (Mcl-1/Ku complex): increased at 2, 8, and 24 hours | induction of Rad51 foci [2]: induced Rad51 foci | RPA2 foci formation ([4]; Hu 0.2 mM for 24 hours): induced RPA2 foci formation | RPA2 phosphorylation at S4 and S8 ([5]; Hu 0.2 mM for 24 hours): stimulated RPA2 phosphorylation

CCOC1=CC=CC(=CNn2c(-c3ccccc3Cl)nc3ccccc3c2=O)C1=O [MI-223, 2-(2-chlorophenyl)-3-(((5-ethoxy-6-oxocyclohexa-2,4-dien-1-ylidene)methyl)amino)quinazolin-4(3H)-one]
HR activity [6]: potently inhibited HR activity | Ki-67 in tumor tissues [7, 13]: significant reduction of Ki-67 | γ-H2AX in tumor tissues [7, 13]: increased levels of γ-H2AX | Ki-67 in tumor tissues [7, 14]: significant reduction of Ki-67 | γ-H2AX in tumor tissues [7, 14]: increased levels of γ-H2AX | suppression of lung tumor growth ([3]; MI-223 40 mg/kg/d in combination with Hu 500 mg/kg): significantly greater efficacy than a single agent alone | suppression of lung tumor growth ([3]; MI-223 40 mg/kg/d in combination with olaparib 40 mg/kg/d, 3 weeks): significantly greater efficacy than a single agent alone | repression of lung cancer in vivo (tumor volume) [3]: potently represses lung cancer in vivo | disruption of Mcl-1/Ku complex (Mcl-1/Ku complex; increasing concentrations, 24 hours, co-IP with Mcl-1 antibody): disrupted the Mcl-1/Ku complex | HR efficacy [8]: no significant further effect | apoptotic cell death (H1299 cells [9]): did not induce significant apoptotic cell death | inhibition of Rad51 foci formation ([2]; olaparib- or Hu-induced foci, MI-223 4 μM, 24 hours): strongly inhibited Rad51 foci formation | Kd (WT Mcl-1 protein): 161 ± 7 nM | Ki (Mcl-1): 193 ± 4.3 nM | synergy in cell killing (colony formation) (H1299 lung cancer cells; MI-223 in combination with Hu): synergizes | synergy in cell killing (colony formation) (H1299 lung cancer cells; MI-223 in combination with olaparib): synergizes | HR activity ([10]; H1299 DR-GFP cells, dose-dependent): potently inhibited HR activity | HR efficacy ([10]; H1299 parental cells, 24 hours): dose-dependent reduction of HR efficacy | binding to ΔBH1 Mcl-1 mutant protein [11]: failed to bind | histopathologic evaluation of normal tissues ([12]; brain, heart, lung, liver, spleen, kidney, and intestine): no evidence of normal tissue toxicity | increase in alanine transaminase, aspartate transaminase, or blood urea nitrogen [12, 15]: no significant | reduction in wbcs, rbcs, hemoglobin, or platelets [12, 15]: no significant | weight loss [12, 15]: no significant weight loss

O=C1C=CC=CC1=CNNc1nnc(NNC=C2C=CC=CC2=O)c2ccccc12 [MI-647, 6,6′-((phthalazine-1,4-diylbis(hydrazine-2,1-diyl))bis(methanylylidene))bis(cyclohexa-2,4-dien-1-one)]
repression of lung cancer in vivo (tumor volume) [3]: potently represses lung cancer in vivo
